Measured values published in ChEMBL document CHEMBL1126214, “Muscarinic agonist SAR of azaspirodioxolanes” (Bioorg Med Chem Lett, 1992).

Assays:
[1] = target: T1, Muscarinic acetylcholine receptor M1 (Rattus norvegicus, UniProt P08482); assay: In vitro 100 nM cortex affinity to displace [3H]- -pirenzepine providing a measure of muscarinic m1 receptor antagonist affinity
T1 sequence (P08482 whole entry): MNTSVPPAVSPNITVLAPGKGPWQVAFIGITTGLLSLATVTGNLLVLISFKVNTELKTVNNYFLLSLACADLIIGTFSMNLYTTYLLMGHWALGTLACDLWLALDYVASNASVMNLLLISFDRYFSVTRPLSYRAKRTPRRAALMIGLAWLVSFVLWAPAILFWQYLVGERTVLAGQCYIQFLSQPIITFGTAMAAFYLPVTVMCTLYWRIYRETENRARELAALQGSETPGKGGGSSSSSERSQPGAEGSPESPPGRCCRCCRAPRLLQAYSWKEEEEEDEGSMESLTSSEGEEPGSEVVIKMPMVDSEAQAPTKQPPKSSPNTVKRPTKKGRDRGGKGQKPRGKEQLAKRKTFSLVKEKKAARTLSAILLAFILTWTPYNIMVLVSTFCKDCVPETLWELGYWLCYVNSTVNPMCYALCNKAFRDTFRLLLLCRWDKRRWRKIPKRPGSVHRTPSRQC

[2] = target: T2, Muscarinic acetylcholine receptor M1 (Rattus norvegicus) (UniProt P08482); settings: Ileum
T2 sequence (whole entry): T1 sequence (P08482 whole entry)

[3] = target: T1, Muscarinic acetylcholine receptor M1; assay: In vitro 100 nM cortex affinity to displace [3H]- -CD providing a measure of muscarinic m1 receptor agonist affinity
[4] = target: T2, Muscarinic acetylcholine receptor M1 (Rattus norvegicus)
[5] = target: T1, Muscarinic acetylcholine receptor M1; assay: (§1) Compound was tested in vitro for its muscarinic m1 receptor agonist potency in the ileum model as a functional measure of peripheral muscarinic m1 receptor activity; type: tissue-based; settings: read-out: pA2 (converted)
[6] = target: T2, Muscarinic acetylcholine receptor M1 (Rattus norvegicus); assay: Compound was tested in vitro for its muscarinic agonist potency in the ganglion model as a functional measure of central muscarinic m1 receptor activity
[7] = target: T1, Muscarinic acetylcholine receptor M1; assay: Compound was tested in vitro for its efficacy in the ileum model as a functional measure of peripheral muscarinic m1 receptor activity; type: tissue-based; settings: read-out: pA2 (converted)
[8] = target: T2, Muscarinic acetylcholine receptor M1 (Rattus norvegicus); assay: as §1; type: tissue-based

Row | Ki [1] [nM] | Ki [3] [nM] | pD2 [4] | Kb [7] [nM] | pD2 [8] | SMILES | pD2 [2] | Kb [5] [nM] | pD2 [6]
1 | 4050 | 175 | 6.2 |  |  | CC1C(=O)CC2(CCN(C)CC2)C1=O (centres undefined) | 5.5 |  | 
2 | 1250 | 515 | 5.7 |  |  | C[C@@H]1OC2(CS1)CN1CCC2CC1 (some centres undefined) | 5.4 |  | 
3 | 2100 | 530 | 5 |  |  | CC1SCC2(CCN(C)CC2)S1 (centres undefined) | 4.9 |  | 
4 | 765 | 87 | 6.7 |  |  | CCC1C(=O)CC2(CCN(C)CC2)C1=O (centres undefined) | 6.1 |  | 
5 | > 10000 | 1200 |  |  |  | CN1CCC2(CC1)COCO2 | 4.6 |  | 4.6
6 | > 10000 | 870 | 5.5 |  |  | COC1OCC2(CCN(C)CC2)O1 (centres undefined) | 4.7 |  | 
7 | 430 | 105 | 6.1 |  |  | C[C@H]1OC2(CS1)CN1CCC2CC1 (some centres undefined) | 4.9 |  | 
8 | 0.6 | 8.1 |  | 6.31 |  | CN1CCC2(CC1)COC(c1ccccc1)(c1ccccc1)O2 |  | 10 | 
9 | > 10000 | > 10000 | < 4 |  | < 4 | CN1CCC2(CC1)COC(C)(C)O2 |  |  | 
10 |  |  |  |  |  | C[C@@H]1OCC2(CCN(C)C2)O1 (stereo in doubt; trans) [listing 1 of 2 here] | 4.5 |  | 
11 | 1320 | 745 | 5.5 |  |  | CCC1OCC2(CCN(C)CC2)O1 (centres undefined) | 5 |  | 
12 | 3160 | 720 | 5.6 |  |  | CC1OCC2(CCN(C)CC2)S1 (centres undefined) | 5.1 |  | 
13 | > 10000 | 145 | 5.9 |  |  | CC1OCC2(CCNCC2)O1 (centres undefined) | 5.1 |  | 
14 | 5000 | 210 | 6.1 |  |  | CC1OCC2(CC[N+](C)(C)CC2)O1 (centres undefined) | 5.2 |  | 
15 | 2650 | 185 | 6.1 |  |  | CC1OC2(CCN(C)CC2)CS1 (centres undefined) | 6 |  | 

Row | SMILES | Ki [1] [nM] | Ki [3] [nM] | pD2 [4] | Kb [7] [nM] | pD2 [8] | pD2 [2] | Kb [5] [nM] | pD2 [6]
16 | CN1CCC2(CC1)COC(c1ccccc1)O2 (centres undefined) | 620 | 2800 |  |  |  |  | 5010 | 
17 | CC1OCC2(CCCN(C)C2)O1 (centres undefined) |  |  | < 4 |  |  | < 4 |  | 
18 | C[C@H]1OC2(CCN(C)C2)CS1 (some centres undefined) | 6700 | 585 | 5.7 |  |  | 5.2 |  | 
19 | CC1OC[C@@]2(CN3CCC2C3)O1 (some centres undefined) | 1950 | 30 |  |  |  | 5.9 |  | 6.5
20 | CN1CCC2(CC1)COC(C(Cl)(Cl)Cl)O2 (centres undefined) | 200 | 960 |  |  |  |  |  | 
21 | C[C@@H]1OCC2(CCN(C)C2)O1 (stereo in doubt; cis) [listing 1 of 2 here] |  |  | 5.6 |  |  | 5.2 |  | 
22 | C[C@@H]1O[C@H](C[N+](C)(C)C)C[C@H]1O |  |  | 7.4 |  |  | 6.8 |  | 
23 | C[C@@H]1OCC2(CCN(C)C2)O1 (stereo in doubt; cis) [listing 2 of 2 here] | > 10000 | 550 |  |  |  |  |  | 
24 | C[C@@H]1OCC2(CCN(C)C2)S1 (some centres undefined) | > 10000 | 9150 |  |  |  |  |  | 
25 | C#CC1OCC2(CCN(C)CC2)O1 (centres undefined) | 3000 | 295 | 5.9 |  |  | 5.2 |  | 
26 | C[C@@H]1OCC2(CCN(C)C2)O1 (stereo in doubt; trans) [listing 2 of 2 here] | > 10000 | 1750 |  |  |  |  |  | 
27 | C[C@@H]1OCC2(CN3CCC2C3)O1 (some centres undefined) | 6400 | 180 | 5.7 |  |  | 5.5 |  | 
28 | C[C@H]1OCC2(CN3CCC2C3)O1 (some centres undefined) | > 10000 | 1850 | 4.4 |  |  | 4.1 |  | 
29 | C[C@@H]1OCC2(CN3CCC2CC3)O1 (some centres undefined) | 1570 | 90 | 6 |  |  | 4.8 |  | 
30 | C[C@H]1OC[C@@H](C[N+](C)(C)C)O1 | 2100 | 6.4 | 7.8 |  |  | 7.5 |  | 
31 | CC[C@H](C)[C@@H]1NC(=O)[C@H](CCCN=C(N)N)NC(=O)[C@@H](CC(=O)O)NC(=O)[C@H]([C@@H](C)CC)NC(=O)[C@@H](CCCN=C(N)N)NC(=O)CNC(=O)CNC(=O)[C@@H](Cc2ccccc2)NC(=O)[C@H](C)NC(=O)[C@@H](NC(=O)[C@H](CO)NC(=O)[C@@H](N)CO)CSSC[C@@H](C(=O)N2C[C@H](C(=O)N[C@H](CCCN=C(N)N)C(=O)O)Cc3ccccc32)NC1=O |  |  | < 4 |  |  | 4.1 |  | 
